In ChEMBL document CHEMBL1146171, “Discovery and initial development of a novel class of antibacterials: inhibitors of Staphylococcus aureus transcription/translation” (Bioorg Med Chem Lett, 2006):
≈ marks a conversion by molar mass, not a printed value.

Legend:
Type in all cases: functional
[1] = tested on: Staphylococcus aureus; experiment: Antibacterial activity against Staphylococcus aureus
[2] = tested on: Staphylococcus aureus; experiment: Inhibition of coupled transcription/translation in Staphylococcus aureus at 100 uM; conditions: for inhibition at 100 µM / IC50: Staphylococcus aureus
[3] = tested on: Staphylococcus aureus; experiment: Inhibition of coupled transcription/translation in Staphylococcus aureus at 30 uM
[4] = Staphylococcus aureus, read-out: MIC

SMILES	MIC [1, 4] [mg/L]	MIC [1] [mg/L]	IC50 [2] [µM]	inhibition at 100 µM [2] [%]	Inhibition [2] [%]	inhibition at 30 µM [3] [%]
O=C(Nc1cc(F)c(F)cc1C(=O)O)c1ccc(S(=O)(=O)Nc2cccc(C(F)(F)F)c2)cc1	> 128	–	–	55	–	–
O=C(Nc1ccc(Br)cc1C(=O)O)c1ccc(S(=O)(=O)N2CCC[C@@H]2CO)cc1	> 128	–	–	19	–	–
COCCN(CCOC)S(=O)(=O)c1ccc(C(=O)Nc2ccc(Br)cc2C(=O)O)cc1	32 (≈ 62.1 µM)	–	–	10	–	–
COc1cccc(NS(=O)(=O)c2ccc(C(=O)Nc3ccc(Br)cc3C(=O)O)cc2)c1	16 (≈ 31.7 µM)	–	–	20	–	–
CN(c1ccc(Cl)cc1)S(=O)(=O)c1ccc(C(=O)Nc2ccc(Cl)cc2C(=O)O)cc1	16 (≈ 33.4 µM)	–	–	85	–	–
CCCN(CCC)S(=O)(=O)c1ccc(C(=O)Nc2cc3ccccc3cc2O)cc1	> 128	–	–	10	–	–
COC(=O)c1cc(Br)ccc1NC(=O)c1ccc(S(=O)(=O)Nc2cccc(OCc3ccccc3)c2)cc1	> 128	–	–	4	–	–
COc1ccc(NC(=O)c2ccc(S(=O)(=O)Nc3cccc(C(F)(F)F)c3)cc2)c(C(=O)O)c1	> 128	–	–	35	–	–
CC1(c2ccccc2)CCCN(S(=O)(=O)c2ccc(C(=O)Nc3ccc(Br)cc3C(=O)O)cc2)C1 (stereo unspecified)	16 (≈ 28.7 µM)	–	30	96	–	–
O=C(Nc1ccc(Br)cc1C(=O)O)c1ccc(S(=O)(=O)N2CCC(Nc3ccccc3)CC2)cc1	32 (≈ 57.3 µM)	–	–	62	–	–
N#Cc1cccc(NS(=O)(=O)c2ccc(C(=O)Nc3ccc(Br)cc3C(=O)O)cc2)c1	64 (≈ 128 µM)	–	–	30	–	–
CN(c1ccc(Cl)cc1)S(=O)(=O)c1ccc(C(=O)Nc2cc(Cl)ccc2C(=O)O)cc1	64 (≈ 134 µM)	–	–	47	–	–
CCCN(CCC)S(=O)(=O)c1ccc(C(=O)Nc2c(OC)cc(OC)cc2C(=O)O)cc1	> 128	–	–	0	–	–
CCCN(c1ccccc1)S(=O)(=O)c1ccc(C(=O)Nc2ccc(I)cc2C(=O)O)cc1	16 (≈ 28.3 µM)	–	–	90	–	–
O=C(Nc1ccc(Br)cc1C(=O)O)c1ccc(S(=O)(=O)N2CCCCC2)cc1	16 (≈ 34.2 µM)	–	–	–	35	–
CCCN(c1ccccc1)S(=O)(=O)c1ccc(C(=O)Nc2ccc(Br)cc2C(=O)O)cc1	16 (≈ 30.9 µM)	–	–	80	–	–
CN(c1ccc(Cl)cc1)S(=O)(=O)c1ccc(C(=O)Nc2ccc(Cl)c(C(=O)O)c2)cc1	> 128	–	–	10	–	–
Cl.O=C(Nc1ccc(Br)cc1C(=O)O)c1ccc(S(=O)(=O)N2CCCCC2)cc1	16	–	–	34	–	–
Cc1cc(Br)ccc1NC(=O)c1ccc(S(=O)(=O)N(C)c2ccc(Cl)cc2)cc1	> 128	–	–	12	–	–
CCCN(c1ccccc1)S(=O)(=O)c1ccc(C(=O)Nc2ccc(Cl)cc2C(=O)O)cc1	32 (≈ 67.7 µM)	–	–	50	–	–
CCCN(c1ccccc1)S(=O)(=O)c1ccc(C(=O)Nc2ccc(C)cc2C(=O)O)cc1	128 (≈ 283 µM)	–	–	34	–	–
CN(c1ccc(Cl)cc1)S(=O)(=O)c1ccc(C(=O)Nc2ccc(F)cc2C(=O)O)cc1	> 128	–	–	30	–	–
CCCN(CCC)S(=O)(=O)c1ccc(C(=O)Nc2cc3ccccc3cc2C(=O)O)cc1	64 (≈ 141 µM)	–	–	30	–	–
CCCN(CCC)S(=O)(=O)c1ccc(C(=O)Nc2ccc3ccccc3c2)cc1	> 128	–	–	10	–	–
O=C(Nc1ccc(Br)cc1C(=O)O)c1ccc(S(=O)(=O)Nc2ccc(Cl)cc2)cc1	16 (≈ 31.4 µM)	–	–	45	–	–
O=C(Nc1ccc(Br)cc1C(=O)O)c1ccc(S(=O)(=O)N2CCC(Cc3ccccc3)CC2)cc1	16 (≈ 28.7 µM)	–	28	98	–	–
COc1ccc(N(C)S(=O)(=O)c2ccc(C(=O)Nc3ccc(Br)cc3C(=O)O)cc2)cc1	32 (≈ 61.6 µM)	–	–	50	–	–

Compounds with a lower MIC [1, 4], results first:

MIC [1, 4] [mg/L]	MIC [1] [mg/L]	IC50 [2] [µM]	SMILES	inhibition at 100 µM [2] [%]	Inhibition [2] [%]	inhibition at 30 µM [3] [%]
8 (≈ 15.3 µM)	16 (≈ 30.5 µM)	–	CN(c1ccc(Cl)cc1)S(=O)(=O)c1ccc(C(=O)Nc2ccc(Br)cc2C(=O)O)cc1	75	80	–
8 (≈ 14.7 µM)	–	–	O=C(Nc1ccc(Br)cc1C(=O)O)c1ccc(S(=O)(=O)Nc2cccc(C(F)(F)F)c2)cc1	65	–	–
8 (≈ 15.5 µM)	–	60	O=C(Nc1ccc(Br)cc1C(=O)O)c1ccc(S(=O)(=O)N2CCc3ccccc3C2)cc1	84	–	–
8 (≈ 16.2 µM)	–	–	O=C(Nc1ccc(Br)cc1C(=O)O)c1ccc(S(=O)(=O)N2CC3CCC2CC3)cc1	57	–	–
8 (≈ 14.7 µM)	–	55	O=C(Nc1ccc(Br)cc1C(=O)O)c1ccc(S(=O)(=O)N2CCC(c3ccccc3)CC2)cc1	96	–	–
8 (≈ 14.9 µM)	–	–	O=C(Nc1ccc(Br)cc1C(=O)O)c1ccc(S(=O)(=O)N2CCCC23CCC(O)CC3)cc1 (stereo unspecified)	22	–	–
8 (≈ 13.8 µM)	–	–	O=C(Nc1ccc(Br)cc1C(=O)O)c1ccc(S(=O)(=O)Nc2cccc(OCc3ccccc3)c2)cc1	75	–	–
8 (≈ 16.5 µM)	–	–	CCCN(CCC)S(=O)(=O)c1ccc(C(=O)Nc2ccc(Br)cc2C(=O)O)cc1	61	–	–
4 (≈ 7.67 µM)	–	60	O=C(Nc1ccc(Br)cc1C(=O)O)c1ccc(S(=O)(=O)N2CCCC23CCCCC3)cc1	90	–	–
4 (≈ 7.98 µM)	–	–	O=C(Nc1ccc(Br)cc1C(=O)O)c1ccc(S(=O)(=O)N2Cc3ccccc3C2)cc1	77	–	–
4 (≈ 7.88 µM)	–	60	O=C(Nc1ccc(Br)cc1C(=O)O)c1ccc(S(=O)(=O)N2CC3CCCC(C3)C2)cc1	88	–	–
2 (≈ 3.78 µM)	–	55	CC1(C)Cc2ccccc2N1S(=O)(=O)c1ccc(C(=O)Nc2ccc(Br)cc2C(=O)O)cc1	87	–	–
1 (≈ 1.87 µM)	–	80	O=C(Nc1ccc(Br)cc1C(=O)O)c1ccc(S(=O)(=O)N2CCc3cc(Cl)ccc32)cc1	71	–	–
1 (≈ 1.87 µM)	0.5 (≈ 0.933 µM)	40	O=C(Nc1ccc(Br)cc1C(=O)O)c1ccc(S(=O)(=O)N2CCc3ccc(Cl)cc32)cc1	96	–	93
0.5 (≈ 0.817 µM)	–	–	O=C(Nc1ccc(Br)cc1C(=O)O)c1cc(S(=O)(=O)Nc2ccc3c(c2)OCCO3)ccc1Br	–	–	15
0.25 (≈ 0.421 µM)	–	–	O=C(Nc1ccc(Br)cc1C(=O)O)c1cc(S(=O)(=O)NC2Cc3ccccc3C2)ccc1Br	–	–	30
0.25 (≈ 0.472 µM)	–	–	Cc1ccc(C(=O)Nc2ccc(Br)cc2C(=O)O)cc1S(=O)(=O)NC1Cc2ccccc2C1	–	–	20
